From US11690853B2, “Non-hormonal steroid modulators of NF-κβ for treatment of disease” (ReveraGen BioPharma, Inc., priority 2015, dated 2023)
“Also recorded” adds a separate entry of the source.

Experiments:
mdx mice [1] = test: mdx mouse model: histological evaluation of gastrocnemius muscle (H&E); type: in vivo; settings: H&E staining; 3 months treatment; comparison to untreated and prednisolone treated mdx mice
Description: (§1) Separate groups (n=12-14) of mdx mice were treated with prednisolone (5 mg/kg/day; per oral in feed), Example 1 (20 and 40 mg/kg/day; per oral in feed) and Example 2 (20 and 40 mg/kg/day; per oral in feed) for 3 months. All mice underwent 30 min biweekly treadmill exercise during the treatment duration to unmask the mild disease phenotype of mdx mouse model.
Hematoxylin and Eosin staining of gastrocnemius muscle of untreated mdx mice show significant degeneration and inflammation.

mdx mice [2] = test: mdx mouse model of dystrophy: body weight; type: in vivo; settings: prednisolone 5 mg/kg/day per oral in feed; 33.8 weeks age; P<0.05
Description: as §1

mdx mice [3] = test: mdx mouse model: in vitro force contractions of EDL muscle; type: in vivo; settings: prednisolone 5 mg/kg/day; P<0.05
Description: as §1
The distal tendon of the extensor digitorum longus (EDL) muscle was tied securely to the lever arm of a servomotor/force transducer (model 305B, Aurora Scientific, Richmond Hill, ON, Canada) and the proximal tendon to a tissue clamp. Muscles were stimulated between two platinum electrodes. […] With the muscle held at Lo using stimulation frequencies of 30, 50, 80, 100, 120 and 150 Hz, the maximum isometric tetanic force (Po) developed during a 300 ms train of stimulation pulses was recorded for the EDL muscle. The muscle length was then measured with calipers and after removal of the muscle from the bath the mass of the muscle was determined. For each muscle, the optimum fiber length (Lf) was calculated by multiplying Lo by a previously determined Lf/Lo ratio of 0.45. Total muscle fiber cross-sectional area was determined by dividing the wet mass by the product of Lf and the density of mammalian skeletal muscle (1.06 mg/mm^3). […]

OVA-primed mice = test: OVA-induced mouse model of acute allergic asthma; type: in vivo; settings: 20 mg/kg oral on days 6-11
Description: The model used in the current studies has been previously described (Gwinn et al. 2006; Balsley et al. 2010). Briefly, mice were primed via intraperitoneal (i.p) injection with 50 μg of OVA in PBS with 100 μl of alum (200 μl total volume per mouse) on day 0. OVA-primed mice were challenged under light anesthesia (isoflurane) by intranasal delivery of 100 μg of OVA in PBS on days 7-10. Mice were sacrificed via CO2 exposure on day 12 for analysis.
For in vivo intervention studies, mice (n=5) received an oral dose of 20 mg/kg of the compound of Example 7 suspended in cherry syrup (30 μl total volume) on days 6-11. Additional groups of mice (n=5) received 5 mg/kg of prednisone in cherry syrup as a positive control, or cherry syrup alone as a negative control. Following sacrifice on day 12, leukocytes were collected from the airways via bronchoalveolar lavage (BAL). For this procedure, a cannula was inserted into the trachea and two 1 ml washes of cold PBS were infused in and out of the airways. […]
BAL and lung tissue cells were treated with ammonium chloride lysis buffer to remove red blood cells. The remaining leukocytes were then counted and stained for FACS analysis with a combination of PE-Cy5-anti-mouse CD4 and FITC-anti-mouse CD62L to identify effector/memory CD4+ cells (CD4+/CD62L−). […]

Female beagle dogs = test: Corpora lutea in female dogs, 39-week treatment; type: in vivo, dog; settings: at ≥2 mg/kg/day, dose-dependent increases in incidence; doses of 2, 10, or 50 mg/kg for 39 weeks
Description: Female beagle dogs were treated with Example 7 for 39 weeks at doses of 2, 10, or 50 mg/kg. This experiment was performed at MPI (report #1998-014). Ovaries were examined by a trained pathologist.

[4] = system: J:NU mice injected with BSG mouse CSPG4+/+ cells; test: Mouse model of diffuse intrinsic pontine glioma; type: in vivo
Description: A murine model of brainstem glioma developed in Dr. Javad Nazarian's laboratory at Children's National Medical Center was used for testing VBP15 efficacy in vivo. BSG mouse CSPG4+/+ cells were expanded in culture to form neurospheres and were subsequently injected into brainstems of 2-day old (P2) J:NU mice. Dexamethasone (Dex) (2.5 mg/kg body weight), Example 7 (30 mg/kg body weight) and cherry syrup (control) were orally administered daily for […] starting on postnatal day 11. In another study, mice were treated daily with Dexamethasone (Dex) (2.5 mg/kg), Example 7 (30 mg/kg) or cherry syrup from post-natal days 10-46.

DBA/1 mice = test: Collagen antibody induced arthritis (CAIA) model; type: in vivo, mouse; set-up: Mean clinical severity score, Day 7 / Mean clinical severity score, Day 9 / Mean clinical severity score, Day 11 / Mean clinical severity score, Day 14: scale not given here; settings: for Mean clinical severity score, Day 7 / Mean clinical severity score, Day 9 / Mean clinical severity score, Day 11 / Mean clinical severity score, Day 14: oral, day 0 through day 14; for Mean clinical severity score, Day 7 / Mean clinical severity score, Day 9 / Mean clinical severity score, Day 11 / Mean clinical severity score, Day 14 / Reduction as compared with vehicle-treated mice, Day 7 / Reduction as compared with vehicle-treated mice, Day 9 / Reduction as compared with vehicle-treated mice, Day 11 / Reduction as compared with vehicle-treated mice, Day 14: prednisone 5 mg/kg, Example 7 20 mg/kg
Description: On day 1, DBA/1 mice (Jackson Labs, Bar Harbor, Me.) received an intraperitoneal (i.p.) injection of 2 mg of monoclonal antibody cocktail specific for collagen (CII) (MD Biosciences, St. Paul, Minn.). Two days later (day 3), mice received an i.p. injection of 100 μg of lipopolysaccharide (LPS). Mean clinical severity of CAIA was determined using a macroscopic clinical severity scoring system every 2-3 days by three individuals until the end of the experiment (day 14 post antibody cocktail injection). The scoring criteria was performed as follows:
For intervention studies, mice (n=10) received an oral dose of 20 mg/kg of the compound of Example 7 suspended in cherry syrup (30 μl total volume) on day 0 through day 14. Additional groups of mice (n=10) received 5 mg/kg of prednisone in cherry syrup as a positive control, or cherry syrup alone as a negative control. On day 14, animals were sacrificed via CO2 exposure. Statistical analysis was performed using a two-way ANOVA followed by a Bonferroni post-hoc test.

C57BL/6 mice = test: Mouse carrageenan-induced paw edema model; type: in vivo; settings: Example 7 10, 20, 40 mg/kg in cherry syrup; 5 hours after carrageenan
Description: Female C57BL/6 mice (n=5 per group) were administered prednisone (5 mg/kg) and the compound of Example 7 (10, 20, 40 mg/kg) in cherry syrup. 24 hours later, drugs and vehicle control (syrup) were administered again. 2 hours later, mice were anesthetized, paw thickness was measured with a caliper to obtain a baseline value, and 1% carrageenan was injected subcutaneously in the subplantar region of the right hind paw. Mice were sacrificed 5 hours later and paw edema was measured via caliper. Change in thickness was calculated by subtracting baseline value from post-carrageenan injection value. Statistical analysis was performed using a Student's T-test.

DBA mdx mice = test: Heart function in mdx mice (echocardiography); type: in vivo, mouse; settings: 15 and 30 mg/kg/day oral syrup, 8 weeks
Text: To test the compound of Example 7 and its relationship to heart function, 4 groups of mdx mice (n=10, per group) and 1 group of wild type mice (n=10, per group) were studied. The groups were as indicated as such in Table 2.
The method of administration was a daily oral syrup an the treatment period was eight (8) weeks. The age at the start of the first dose was 6-7 weeks. Echocardiography was used to assess ejection fraction and fraction shortening following drug treatment.

[5] = system: knockout-transgenic sickle cell mice; test: Mouse model of sickle cell disease; type: in vivo; settings: 30 mg/kg, 6 weeks
Description: Example 7 was tested in a mouse model of sickle cell disease, knockout-transgenic sickle cell mice were used which have been previously described in Meiler S E et al. 2001.
Female knockout-transgenic sickle mice (aged 6-8 weeks), were treated for 6 weeks with Example 7, (30 mg/kg) (n=5), or a vehicle control (cherry syrup) (n=5). At the end of the 6 week treatment, hematologic parameters were measured and tissues were harvested. Additionally, nociception evaluation was performed before and after treatment by assessing sensitivity to hot and cold pain as previously described in Le Bars D. et al. 2001.

| Compound | Histology of skeletal muscle: inflammation, degeneration, regenerating fibers (mdx mice [1]) | Mean clinical severity score, Day 7 (DBA/1 mice) | Mean clinical severity score, Day 9 (DBA/1 mice) | Mean clinical severity score, Day 11 (DBA/1 mice) | Mean clinical severity score, Day 14 (DBA/1 mice) | Reduction as compared with vehicle-treated mice, Day 7 (DBA/1 mice) | Reduction as compared with vehicle-treated mice, Day 9 (DBA/1 mice) | Reduction as compared with vehicle-treated mice, Day 11 (DBA/1 mice) | Reduction as compared with vehicle-treated mice, Day 14 (DBA/1 mice) | also measured |
| --- | --- | --- | --- | --- | --- | --- | --- | --- | --- | --- |
| C[C@]12CCC(=O)C=C1CCC1C2=CC[C@@]2(C)C1CC[C@]2(O)C(=O)CO (stereo partly drawn) [Example 1, (10S,13S,17R)-17-hydroxy-17-(2-hydroxyacetyl)-10,13-dimethyl-6,7,8,10,12,13,14,15,16,17-decahydro-1H-cyclopenta[a]phenanthren-3(2H)-one] | significant decrease in inflammation, degeneration, and increase in regenerating muscle fibers |  |  |  |  |  |  |  |  |  |
| C[C@]12C=CC(=O)C=C1CC[C@@H]1[C@@H]2[C@@H](O)C[C@@]2(C)[C@H]1CC[C@]2(O)C(=O)CO [Prednisolone] | appeared to increase degeneration and decrease in regeneration |  |  |  |  |  |  |  |  | Body weight versus untreated mice (mdx mice [2]): significantly lower body weight; Specific force of EDL muscle, difference to untreated group (mdx mice [3]): no statistically significant (P<0.05) difference |
| C[C@@H]1CC2C3CCC4=CC(=O)C=C[C@]4(C)C3=CC[C@]2(C)[C@@]1(O)C(=O)CO (stereo partly drawn) [Example 7, (10S,13S,16R,17R)-17-hydroxy-17-(2-hydroxyacetyl)-10,13,16-trimethyl-6,7,8,10,12,13,14,15,16,17-decahydro-3H-cyclopenta[a]phenanthren-3-one] |  | 4.5 ± 0.95 | 5.0 ± 0.77 | 5.6 ± 0.82 | 3.1 ± 0.69 | 43.8% | 35.5% | 41.3% | 50% | Acute allergic lung inflammation: leukocyte infiltration (eosinophils and CD4+ T cells) and mucus production (OVA-primed mice): effective at improving parameters of acute allergic lung inflammation; Corpora lutea in the ovaries (Female beagle dogs): absent bilaterally; Increase in survival relative to mice treated with dexamethasone or control mice ([4]; 30 mg/kg daily from post-natal days 10-46): 19%; Brain edema ([4]; 30 mg/kg oral daily for 14 weeks starting on postnatal day 11): significant decrease in brain edema; Collagen antibody induced arthritis, overall effect (DBA/1 mice; 20 mg/kg oral): effective at reducing collagen antibody induced arthritis; Paw edema induced by carrageenan (change in paw thickness) (C57BL/6 mice): effective at reducing mouse paw edema; Ejection fraction (DBA mdx mice): improved ejection fraction; Fraction shortening (DBA mdx mice): improved fraction shortening; Platelet count [5]: decreases; also recorded: reduces platelet count; Sensitivity to cold pain [5]: strikingly decreases sensitivity to cold pain; also recorded: reduces sensitivity to cold pain; Sensitivity to heat pain [5]: significantly decreases sensitivity to heat pain; also recorded: reduces sensitivity to heat pain; Spleen size [5]: decreased spleen size; also recorded: reduces spleen size; White blood cell count [5]: decreases white blood cell count; also recorded: reduces white blood cell count |
| C[C@]12C=CC(=O)C=C1CC[C@@H]1[C@@H]2C(=O)C[C@@]2(C)[C@H]1CC[C@]2(O)C(=O)CO [Prednisone, reference compound] |  | 2.4 ± 0.68 | 1.5 ± 0.27 | 2.9 ± 0.39 | 0.7 ± 0.3 | 69.8% | 69.8% | 69.1% | 88.7% |  |
| C[C@]12C=CC(=O)C=C1CCC1C2=CC[C@@]2(C)C1CC[C@]2(O)C(=O)CO (stereo partly drawn) [Example 2, (10S,13S,17R)-17-hydroxy-17-(2-hydroxyacetyl)-10,13-dimethyl-6,7,8,10,12,13,14,15,16,17-decahydro-3H-cyclopenta[a]phenanthren-3-one] | significant decrease in inflammation, degeneration, and increase in regenerating muscle fibers |  |  |  |  |  |  |  |  |  |
